# Assays:
# [1] = photooxidation of UCA with hydrogen peroxide under UV irradiation (HPLC); format: physicochemical; settings: for YIELD OF PHOTOOXIDATION PRODUCTS: sum of 8 major peaks; for PHOTOISOMERIZATION cis-UCA / PHOTOISOMERIZATION trans-UCA: trans-UCA starting material
# Description: Trans-UCA and cis-UCA were separated from each other and from several UCA oxidation products on a 4.6×250 mm Alltima C18 and Luna C18 reversed-phase column (Alitech, Deerfield, Ill. and Phenomenex, Torrence, Calif., resp.) with a flow of 0.8 mL/min, delivered by P-3500 HPLC-pumps (Pharmacia, Uppsala, Sweden). Samples of 20 to 200 μL were injected by a Promis II autosampler (Spark Holland, Emmen, The Netherlands) and chromatographic data were recorded on an SP 4270 integrator (Spectra Physics, San Jose, Calif.). Peak area data from samples were only processed under identical HPLC circumstances. A UV-detector (Applied Biosystems, model 759A, Foster City, Calif.) was set for 226 nm detection. Isocratic elution was performed with 10 mM ammonium formate buffer, containing 0.2–0.8 mM tetrabutylammonium(TBA)formate and 1% acetonitrile (pH 7.2). Collected fractions were acidified with formic acid up to a final concentration of 100 mM and passed through C18 could phase extraction columns (J T Baker, Deventer, The Netherlands) in order to remove TBA.
# A 1-cm quartz cuvette, filled with 1.4 mL sample, was placed in the parallel beam of a filtered 1000 W Xenon are lamp (Oriel, Stratford, Conn.). The samples were magnetically stirred during irradiation. To minimize infrared (heat) and visible radiation, the beam was passed through a water filter (7 cm), reflected by a dichroic mirror and filtered through a 1=mm UG11 filter. Short wave cut off was achieved by passing the beam through WG280, WG305 or WG335 filters with 3 mm thickness each (Schott-Jena, Mainz, Germany). Xenon lamp emission filtered through WG280 included UV-C, UV-B and UV-A; through WG305 UV-B and UV-A and through WG335 only UV-A was included. Two narrow bands in the UV-B and UV-A spectral regions were selected to monitor the xenon-arc emission. The probe of a calibrated EG&G 550 radiometer (Salem, Mass., USA) was equipped with a neutral density filter and narrow band filter type UV-M-IL (Schott-Jena) with a transmission maximum of 21% at 303 nm and a half-width of 11.5 nm to monitor UV-B or with a type UV-PIL (Schott-Jena) with a transmission maximum of 46% at 363 nm and a half-width of 7.7 nm to monitor UV-A. Transmission spectra of the optical filters were checked on a Perkin Elmer Lambda 40 UV/VIS spectrometer (Norwalk, Conn., USA).
# Additional irradiations were performed with fluorescent tubes TLI2, used as a UV-B source, and TL10R, used as a UV-A source (Philips, Eindhoven, The Netherlands), on samples that were magnetically stirred in small Petri dishes. The UV-B output was measured with an IL 443 phototherapy radiometer, fitted with a SEE 1240 silicon detector probe and the UV-A output with an IL 442A phototherapy radiometer with a SEE 115 detector probe (International Light, Newburyport, Mass., USA).
# The O—O bond of hydrogen peroxide can be cleaved by UV radiation to yield hydroxyl radicals. Because both UCA isomers could effectively scavenge hydroxyl radicals, it is to be expected that UCA will be degraded and/or converted into oxidation products. The ability of simulated solar UV radiation to convert trans-UCA in the presence of hydrogen peroxide into photooxidation products was tested in vitro and analyzed by reversed-phase HPLC analysis. Hydrogen peroxide eluted close to void volume and trans-UCA and cis-UCA eluted with markedly different elution times of 20 and 64 min (FIGS. 3a–d). […] Exposing 80 μM trans-UCA in the absence of hydrogen peroxide at pH 7.2 to WG280-filtered xenon-arc emission (including UV-C and UV-B) resulted only and in the formation of cis-UCA via the process of photoisomerization (FIG. 3b). […] main photooxidation products were recognized as new peaks based on retention times and were assigned in the chromatogram (FIG. 3c).
# In contrast, when exposures were performed with simulated solar radiation from which both UV-C and UV-B were blocked out by a WG335 filter, virtually no photo-oxidation products were found (FIG. 3d). […]
# [2] = hydroxyl-radical-generating systems with copper ions (Cu2+); format: physicochemical
# Description: UCA isomers (10 or 40 μM) were oxidized with a hydroxyl-radical-generating system that consisted of various concentrations of ferrous ions (10–500 μM) and a fixed hydrogen peroxide concentration of 500 μM (the Fenton reagent), either in a sodium phosphate (10 or 20 mM) medium of pH 7.2, or in ultrapure water. In addition, two hydroxyl-radical-generating systems with copper ions (Cu^2+) were used, consisting of 50 μM Cu^2+ with either 500 μM hydrogen peroxide or 5 mM ascorbic acid.
# Evaluation of the data was difficult with the ascorbate system, because several interfering peaks had occurred in the chromatograms, which were probably derived from ascorbic acid and its oxidation products.
# When another hydroxyl-radical-generating system, based on copper ions (Cu^2+) was investigated, the combination of Cu^2+/ascorbic acid/hydrogen peroxide caused a large breakdown or trans-UCA (Table 3) and a moderate yield of UCA oxidation products, in favor of ImCOOH. […] For the situation in vivo, one must remember that the epidermal copper content is lower than iron (29).
# [3] = TL10R unfiltered, 320–440 nm, UV-B 0, UV-A 324
# [4] = TL12 unfiltered, 280–366 nm, UV-B 3.6, UV-A 4.5
# [5] = Xe arc W3305, 292–400 nm, UV-B 18, UV-A 70
# [6] = Xe arc W3335, 320–400 nm, UV-B 0, UV-A 66
# [7] = Xe arc W3280, 270–400 nm, UV-B 37, UV-A 70
compound,measurement,setting,value
"O=C(O)/C=C/c1cnc[nH]1 [trans-Urocanic acid, Trans-urocanic acid]",YIELD OF PHOTOOXIDATION PRODUCTS,[1]; [3],16 (±5) A.U.
same,YIELD OF PHOTOOXIDATION PRODUCTS,[1]; [4],149 (±51) A.U.
same,YIELD OF PHOTOOXIDATION PRODUCTS,[1]; [5],239 (±14) A.U.
same,YIELD OF PHOTOOXIDATION PRODUCTS,[1]; [6],45 (±8) A.U.
same,lowering of initial weight after severe photooxidation,[1]; extensive UCA breakdown (<4% of each UCA isomer left over),~14%
same,UCA LEFT OVER,"[1]; trans-UCA 40 μM, hydrogen peroxide 500 μM, TL10R unfiltered, 320–440 nm, UV-B 0, UV-A 324 kJ · M^−1",99 (±3) %
same,UCA LEFT OVER,"[1]; trans-UCA 40 μM, hydrogen peroxide 500 μM, TL12 unfiltered, 280–366 nm, UV-B 3.6, UV-A 4.5 kJ · M^−1",90 (±20) %
same,UCA LEFT OVER,"[1]; trans-UCA 40 μM, hydrogen peroxide 500 μM, Xe arc W3280, 270–400 nm, UV-C,-B,-A included, UV-B 37, UV-A 70 kJ · M^−1",43 (±11) %
same,YIELD OF PHOTOOXIDATION PRODUCTS,"[1]; trans-UCA 40 μM, hydrogen peroxide 500 μM, Xe arc W3280, 270–400 nm, UV-B 37, UV-A 70",347 (±58) A.U.
same,UCA LEFT OVER,"[1]; trans-UCA 40 μM, hydrogen peroxide 500 μM, Xe arc W3305, 292–400 nm, UV-B,-A included, UV-B 18, UV-A 70 kJ · M^−1",64 (±6) %
same,UCA LEFT OVER,"[1]; trans-UCA 40 μM, hydrogen peroxide 500 μM, Xe arc W3335, 320–400 nm, only UV-A included, UV-B 0, UV-A 66 kJ · M^−1",95 (±5) %
same,PHOTOISOMERIZATION cis-UCA,[1]; [3],16%
same,PHOTOISOMERIZATION trans-UCA,[1]; [3],84 (±7) %
same,PHOTOISOMERIZATION cis-UCA,[1]; [4],59%
same,PHOTOISOMERIZATION trans-UCA,[1]; [4],41 (±4) %
same,PHOTOISOMERIZATION cis-UCA,[1]; [7],59%
same,PHOTOISOMERIZATION trans-UCA,[1]; [7],43 (±2) %
same,PHOTOISOMERIZATION cis-UCA,[1]; [5],53%
same,PHOTOISOMERIZATION trans-UCA,[1]; [5],47 (±3) %
same,PHOTOISOMERIZATION cis-UCA,[1]; [6],40%
same,PHOTOISOMERIZATION trans-UCA,[1]; [6],60 (±2) %
same,trans-UCA left,[2]; Cu2+ (50 μM) and ascorbic acid (5 mM) without hydrogen peroxide,3%
same,trans-UCA left,"[2]; Cu2+ (50 μM) and hydrogen peroxide (500 μM), without ascorbic acid",88%

# — US7056938B1, “Method for scavenging radicals with urocanic acid, derivatives and analogues” (Academisch Ziekenhuis Bij De Univ., priority 1999, dated 2006)
